Reference: US9284321B2, “Piperazino[1,2-a]indol-1-ones and [1,4]diazepino[1,2-a]indol-1-one” (Hoffmann-La Roche Inc., priority 2012, dated 2016)

Columns and labels:
[1] = tested on: human embryonic stem cell derived neural stem cells (NSCs); assay: Neural Stem Cell Proliferation Assay (neurogenesis assay, ATP levels by CellTiterGlo); type: cell-based; conditions: 96 h, compound concentration at which 150% activity of control (100%) is reached, NSC proliferation by ATP level after 4 days incubation, dose response 8 μM to 8 nM
Method in brief: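 Human ESC-derived NSCs (dual SMAD inhibition) seeded 4 h before compounds, 11-point 2-fold series 8 μM–8 nM; 4 days at 37 °C, 5% CO2. ATP by CellTiterGlo luminescence as cell-number proxy, response as % of media control (0.25% DMSO); EC150 = concentration giving 150% of control.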

| melting point [°C] | SMILES | EC (150% of control) [1] [µM] |
| --- | --- | --- |
| 269.5 | Cc1c2n(c3c(-c4ccc(C(F)(F)F)cc4)cc(F)cc13)CCNC2=O [Example 82, 8-Fluoro-10-methyl-6-(4-trifluoromethyl-phenyl)-3,4-dihydro-2H-pyrazino[1,2-a]indol-1-one] | 0.036 |
| 290 | Cc1c2n(c3c(-c4ccncc4)cc(F)cc13)CCNC2=O [Example 83, 8-Fluoro-10-methyl-6-pyridin-4-yl-3,4-dihydro-2H-pyrazino[1,2-a]indol-1-one] | 0.039 |
| 250 | Cc1c2n(c3c(-c4cc(F)cc(F)c4)cc(F)cc13)CCNC2=O [Example 84, 6-(3,5-Difluoro-phenyl)-8-fluoro-10-methyl-3,4-dihydro-2H-pyrazino[1,2-a]indol-1-one] | 0.15 |
| 216 | Cc1c2n(c3c(-c4ccc(Cl)c(F)c4)cc(F)cc13)CCNC2=O [Example 85, 6-(4-Chloro-3-fluoro-phenyl)-8-fluoro-10-methyl-3,4-dihydro-2H-pyrazino[1,2-a]indol-1-one] | 0.04 |
| 224 | Cc1c2n(c3c(-c4ccc(Cl)c(Cl)c4)cc(F)cc13)CCNC2=O [Example 86, 6-(3,4-Dichloro-phenyl)-8-fluoro-10-methyl-3,4-dihydro-2H-pyrazino[1,2-a]indol-1-one] | 0.05 |
| 222 | Cc1c2n(c3c(-c4cccc(F)c4)cc(F)cc13)CCNC2=O [Example 87, 8-Fluoro-6-(3-fluoro-phenyl)-10-methyl-3,4-dihydro-2H-pyrazino[1,2-a]indol-1-one] | 0.1 |
| 230.5 | Cc1c2n(c3c(-c4ccccc4)cc(Cl)cc13)CCNC2=O [Example 88, 8-Chloro-10-methyl-6-phenyl-3,4-dihydro-2H-pyrazino[1,2-a]indol-1-one] | 0.053 |
| 251.5 | Cc1ccc(-c2cc(Cl)cc3c(C)c4n(c23)CCNC4=O)cc1 [Example 89, 8-Chloro-10-methyl-6-p-tolyl-3,4-dihydro-2H-pyrazino[1,2-a]indol-1-one] | 0.01 |
| 260.5 | Cc1c2n(c3c(-c4ccc(C(F)(F)F)cc4)cc(Cl)cc13)CCNC2=O [Example 90, 8-Chloro-10-methyl-6-(4-trifluoromethyl-phenyl)-3,4-dihydro-2H-pyrazino[1,2-a]indol-1-one] | 0.017 |
| 295 | Cc1c2n(c3c(-c4ccncc4)cc(Cl)cc13)CCNC2=O [Example 91, 8-Chloro-10-methyl-6-pyridin-4-yl-3,4-dihydro-2H-pyrazino[1,2-a]indol-1-one] | 0.017 |
| 315.5 | N#Cc1cc(-c2ccncc2)c2c(c1)cc1n2CCNC1=O [Example 92, 1-Oxo-6-pyridin-4-yl-1,2,3,4-tetrahydro-pyrazino[1,2-a]indole-8-carbonitrile] | 0.047 |
| 265.5 | N#Cc1cc(-c2ccccc2)c2c(c1)cc1n2CCNC1=O [Example 93, 1-Oxo-6-phenyl-1,2,3,4-tetrahydro-pyrazino[1,2-a]indole-8-carbonitrile] | 0.035 |
| 285.5 | Cc1ccc(-c2cc(C#N)cc3cc4n(c23)CCNC4=O)cc1 [Example 94, 1-Oxo-6-p-tolyl-1,2,3,4-tetrahydro-pyrazino[1,2-a]indole-8-carbonitrile] | 0.011 |
| 359 | N#Cc1cc(-c2ccc(C(F)(F)F)cc2)c2c(c1)cc1n2CCNC1=O [Example 95, 1-Oxo-6-(4-trifluoromethyl-phenyl)-1,2,3,4-tetrahydro-pyrazino[1,2-a]indole-8-carbonitrile] | 0.018 |
| 239 | Cc1c2n(c3c(-c4cccc(F)c4)cc(Cl)cc13)CCNC2=O [Example 96, 8-Chloro-6-(3-fluoro-phenyl)-10-methyl-3,4-dihydro-2H-pyrazino[1,2-a]indol-1-one] | 0.15 |
| 240 | Cc1c2n(c3c(-c4ccc(Cl)c(Cl)c4)cc(Cl)cc13)CCNC2=O [Example 97, 8-Chloro-6-(3,4-dichloro-phenyl)-10-methyl-3,4-dihydro-2H-pyrazino[1,2-a]indol-1-one] | 0.056 |
| 242.5 | Cc1c2n(c3c(-c4ccc(Cl)c(F)c4)cc(Cl)cc13)CCNC2=O [Example 98, 8-Chloro-6-(4-chloro-3-fluoro-phenyl)-10-methyl-3,4-dihydro-2H-pyrazino[1,2-a]indol-1-one] | 0.019 |
| 241 | Cc1c2n(c3c(-c4cc(F)cc(F)c4)cc(Cl)cc13)CCNC2=O [Example 99, 8-Chloro-6-(3,5-difluoro-phenyl)-10-methyl-3,4-dihydro-2H-pyrazino[1,2-a]indol-1-one] | 0.12 |

| melting point [°C] | SMILES | EC (150% of control) [1] [µM] |
| --- | --- | --- |
| 238 | Cc1c2n(c3c(-c4ccc(F)cc4F)cc(Cl)cc13)CCNC2=O [Example 100, 8-Chloro-6-(2,4-difluoro-phenyl)-10-methyl-3,4-dihydro-2H-pyrazino[1,2-a]indol-1-one] | 0.009 |
| 251.5 | Cc1c2n(c3c(-c4ccc(Cl)cc4F)cc(Cl)cc13)CCNC2=O [Example 101, 8-Chloro-6-(4-chloro-2-fluoro-phenyl)-10-methyl-3,4-dihydro-2H-pyrazino[1,2-a]indol-1-one] | 0.006 |
| 213 | Cc1c2n(c3c(-c4ccc(Cl)cc4Cl)cc(Cl)cc13)CCNC2=O [Example 102, 8-Chloro-6-(2,4-dichloro-phenyl)-10-methyl-3,4-dihydro-2H-pyrazino[1,2-a]indol-1-one] | 0.009 |
| 244.5 | Cc1c2n(c3c(-c4ccc5c(c4)OCO5)cc(Cl)cc13)CCNC2=O [Example 103, 6-Benzo[1,3]dioxol-5-yl-8-chloro-10-methyl-3,4-dihydro-2H-pyrazino[1,2-a]indol-1-one] | 0.018 |
| 290 | Cc1c2n(c3c(-c4ccc(C#N)cc4)cc(Cl)cc13)CCNC2=O [Example 104, 4-(8-Chloro-10-methyl-1-oxo-1,2,3,4-tetrahydro-pyrazino[1,2-a]indol-6-yl)-benzonitrile] | 0.015 |
| 225 | Cc1ccc(-c2cc(Cl)cc3c(C)c4n(c23)CCNC4=O)cc1F [Example 105, 8-Chloro-6-(3-fluoro-4-methyl-phenyl)-10-methyl-3,4-dihydro-2H-pyrazino[1,2-a]indol-1-one] | 0.029 |
| 194.5 | Cc1c2n(c3c(-c4ccc(C(C)C)cc4)cc(Cl)cc13)CCNC2=O [Example 106, 8-Chloro-6-(4-isopropyl-phenyl)-10-methyl-3,4-dihydro-2H-pyrazino[1,2-a]indol-1-one] | 0.05 |
| 321.5 | Cc1c2n(c3c(-c4ccc(S(C)(=O)=O)cc4)cc(Cl)cc13)CCNC2=O [Example 107, 8-Chloro-6-(4-methanesulfonyl-phenyl)-10-methyl-3,4-dihydro-2H-pyrazino[1,2-a]indol-1-one] | 0.027 |
| 290.5 | Cc1c2n(c3c(-c4ccnc(F)c4)cc(Cl)cc13)CCNC2=O [Example 108, 8-Chloro-6-(2-fluoro-pyridin-4-yl)-10-methyl-3,4-dihydro-2H-pyrazino[1,2-a]indol-1-one] | 0.021 |
| 313.5 | Cc1c2n(c3c(-c4ccc([N+](=O)[O-])cc4)cc(Cl)cc13)CCNC2=O [Example 109, 8-Chloro-10-methyl-6-(4-nitro-phenyl)-3,4-dihydro-2H-pyrazino[1,2-a]indol-1-one] | 0.007 |
| 211 | Cc1c2n(c3c(-c4ccc(CO)cc4)cc(Cl)cc13)CCNC2=O [Example 110, 8-Chloro-6-(4-hydroxymethyl-phenyl)-10-methyl-3,4-dihydro-2H-pyrazino[1,2-a]indol-1-one] | 0.014 |
| 196 | COc1ccc(-c2cc(Cl)cc3c(C)c4n(c23)CCNC4=O)cn1 [Example 111, 8-Chloro-6-(6-methoxy-pyridin-3-yl)-10-methyl-3,4-dihydro-2H-pyrazino[1,2-a]indol-1-one] | 0.015 |
| 276 | Cc1c2n(c3c(-c4ccc(Cl)nc4)cc(Cl)cc13)CCNC2=O [Example 112, 8-Chloro-6-(6-chloro-pyridin-3-yl)-10-methyl-3,4-dihydro-2H-pyrazino[1,2-a]indol-1-one] | 0.012 |
| 227 | Cc1c2n(c3c(-c4ccc(N(C)C)cc4)cc(Cl)cc13)CCNC2=O [Example 113, 8-Chloro-6-(4-dimethylamino-phenyl)-10-methyl-3,4-dihydro-2H-pyrazino[1,2-a]indol-1-one] | 0.01 |
| 270 | Cc1c2n(c3c(-c4ccc(F)nc4)cc(Cl)cc13)CCNC2=O [Example 114, 8-Chloro-6-(6-fluoro-pyridin-3-yl)-10-methyl-3,4-dihydro-2H-pyrazino[1,2-a]indol-1-one] | 0.04 |
| 218.5 | Cc1c2n(c3c(-c4cccc(Cl)c4)cc(Cl)cc13)CCNC2=O [Example 115, 8-Chloro-6-(3-chloro-phenyl)-10-methyl-3,4-dihydro-2H-pyrazino[1,2-a]indol-1-one] | 0.43 |
| 261 | Cc1c2n(c3c(-c4ccc5c(c4)CCO5)cc(Cl)cc13)CCNC2=O [Example 116, 8-Chloro-6-(2,3-dihydro-benzofuran-5-yl)-10-methyl-3,4-dihydro-2H-pyrazino[1,2-a]indol-1-one] | 0.055 |
